Non-standard residues stand in square brackets, D forms with d. Residues, ends and D or L forms follow the SMILES beside them. *: point of attachment. Desaminotyrosyl = O=C(CCc1ccc(O)cc1)*; Agmatine = N=C(N)NCCCCN*; Nle = CCCC[C@H](N)C(=O)O; Orn = NCCC[C@H](N)C(=O)O; Abu = CC[C@H](N)C(=O)O
Legend:
GH release = experiment: In vivo endocrine activity, GH release after subcutaneous administration (Table 9); conditions: rat; for GH releasing potency relative to JI-38 (=1): subcutaneous (s.c.) injection
Experimental: Subcutaneous Administration. Adult male rats were used and anesthetized with pentobarbital (6 mg/100 g, b.w.), by i.p. injection. […] Blood samples were taken from the jugular vein 5, 15 and/or 30 minutes after the injection. The blood samples were centrifuged, plasma was removed and the GH level was measured byELISA. The results are summarized in terms of potency in Table 9.

[1] = test system: myocardial infarction (Fisher-344 rats); experiment: Hemodynamic analysis (pressure-volume loops), body and heart weight after MI, compared to JI-38 (Example 15, Table 16); format: in vivo, rat; parameters: key to ESP (End-Systolic Pressure) / EDP (End-Diastolic Pressure) / ESV (End-Systolic Volume) / PRSW (Preload Recruitable Stroke Work) / Ees (End-systolic Elastance) / dP/dt max (peak rate of the pressure rise) / dP/dt max_EDV / dP/dt min / TAU (relaxation time constant calculated by Weiss method) / SV (Stroke Volume) / CO (Cardiac Output) / SW (Stroke Work) / EF / Ea/Ees / Ea (arterial Elastance): ↓: downward arrow denotes lower than JI-38; ↑: upward arrow denotes greater than JI-38; =denotes same as JI-38; ⬇⬇: double arrow denotes greater effect; ⬆⬆: double arrow denotes greater effect; conditions: rat MI model, s.c. twice daily; pressure-volume loops; expressed in comparison to JI-38
Experimental: Rats were anesthetized by intramuscular injection of a mixture of ketamine (100 mg/kg), xylazine (20 mg/kg) and acepromazine (10 mg/kg). A 2-F micromanometer tipped catheter (SPR-838, Millar Instruments, Houston, Tex.) was inserted into the right carotid artery and advanced retrograde into the left ventricle. Measurements were calibrated by injecting a hypertonic saline (15%) bolus to determine extra-ventricular conductance; relative volume units were converted to actual volume using the cuvette calibration method. All analyses were performed using PVAN 3.0 software (Millar Instruments, Houston, Tex.).
(§1) Myocardial infarction (MI) was induced by permanent ligation of the left coronary artery in female 6-month-old Fisher-344 rats. Following experimental myocardial infarction (MI), rats were randomly assigned to receive either placebo, JI-38, or one of the following new analogs of GHRH: MR-30 l(P-21301), MR-303(P-21303), MR-356(P-20356), MR-502(25502), MR-350(P-20350), MR-36 l(P-20361), MR-367(P-20367), MR-403(P-27403), MR-404(P-27404), and MR-409(P-27409) (10 rats per each group). The GHRH peptide agonists were adminsistered starting 2 hours post-surgery, 1 week, 2 week, and 4 week intervals. All treatment was given subcutaneously twice daily. Cardiac performance was assessed by serial echocardiography and hemodynamic analysis derived from pressure-volume loops as described before.
The hemodynamic studies are shown in FIGS. 16-33 and the results are summarized in Table 16 (results were expressed in comparison to JI-38; downward arrow denotes lower than JI-38; upward arrow denotes greater than JI-38; =denotes same as JI-38; and double arrow denotes greater effect).

GHRH receptor [2] = molecular target: T1, GHRH receptor (Homo sapiens, UniProt Q02643); experiment: GHRH receptor binding, competition with 125I-labeled JV-1-42, human pituitary membrane homogenates (Table 5); parameters: Normal human pituitaries were purchased from the National Hormone and Peptide Program; tissue National Hormone and Peptide Program (A.F. Parlow, Harbor-UCLA Medical Center, Torrance, Calif.); host or cells: normal human pituitary, membrane fraction
T1 sequence (Q02643 23-423): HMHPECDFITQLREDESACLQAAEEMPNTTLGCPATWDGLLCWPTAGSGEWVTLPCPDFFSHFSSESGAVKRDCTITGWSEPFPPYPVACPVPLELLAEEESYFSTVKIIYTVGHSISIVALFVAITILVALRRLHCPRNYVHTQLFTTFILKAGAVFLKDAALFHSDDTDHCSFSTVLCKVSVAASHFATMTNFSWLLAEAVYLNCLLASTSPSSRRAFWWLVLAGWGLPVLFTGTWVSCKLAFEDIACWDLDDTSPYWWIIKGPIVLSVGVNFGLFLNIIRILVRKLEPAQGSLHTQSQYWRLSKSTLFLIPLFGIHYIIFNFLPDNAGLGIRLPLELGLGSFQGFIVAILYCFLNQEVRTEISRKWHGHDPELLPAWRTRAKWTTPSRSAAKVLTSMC
Experimental: Normal human pituitaries were purchased from the National Hormone and Peptide Program (A.F. Parlow, Los Angeles, County Harbor-UCLA Medical Center, Torrance, Calif.). Briefly, in competitive binding analysis, ^125I-labeled JV-1-42 ([…]) was displaced by GHRH agonists at 10^−6 to 10^−12 M.
The final binding affinities were expressed as IC50 values and were calculated by using the LIGAND PC computerized curve-fitting program of Munson and Rodbard as modified by McPherson.

GHRH receptor [3] = molecular target: T1, GHRH receptor; experiment: GHRH receptor binding, competition with 125I-labeled JV-1-42, human pituitary membrane homogenates (Table 7); parameters: Normal human pituitaries were purchased from the National Hormone and Peptide Program; tissue National Hormone and Peptide Program (A.F. Parlow, Harbor-UCLA Medical Center, Torrance, Calif.); host or cells: normal human pituitary, membrane fraction
Excerpt: Normal human pituitaries were purchased from the National Hormone and Peptide Program (A.F. Parlow, Los Angeles, County Harbor-UCLA Medical Center, Torrance, Calif.).

[4] = test system: myocardial infarction (Fisher-344 rats); experiment: Serial echocardiography after MI, compared to JI-38 (Example 15, Table 15); format: in vivo, rat; parameters: key to LVEDD: Left Ventricular End Diastolic Diameter / LVESD: Left Ventricular End Systolic Diameter / VD: Ventricular Diastole / VS: Ventricular Systole / EF: Ejection Fraction / FS: Fraction Shortening: ↓: downward arrow denotes lower than JI-38; ↑: upward arrow denotes greater than JI-38; =denotes same as JI-38; ⬇⬇: double arrow denotes greater effect; ⬆⬆: double arrow denotes greater effect; conditions: in comparison to JI-38
Experimental: Echocardiographic measurements were obtained at baseline, 2 days, 1, 2 and 4 weeks. Echocardiographic assessments were performed in anesthetized rats (2% isoflurane inhalation) using a Vevo-770 echocardiogram (Visual Sonics Inc., Toronto, Ontario, Canada) equipped with a 17.5-MHz transducer. Cardiac dimensions: LV end diastolic (LVEDD), end systolic (LVESD) diameters and fractional shortening (FS) were recorded from M-mode images using averaged measurements from 3 to 5 consecutive cardiac cycles according to the American Society of Echocardiography. Ejection fraction (EF) was calculated from bi-dimensional long-axis parasternal views taken through the infarcted area. All images were analyzed using Vevo 770 3.0.0 software (Visual Sonics Inc., Toronto, Ontario, Canada).
as §1
The echocardiographic experiments are shown in FIGS. 10-15 and the results are summarized in Table 15 (results were expressed in comparison to JI-38; downward arrow denotes lower than JI-38; upward arrow denotes greater than JI-38; =denotes same as JI-38; and double arrow denotes greater effect).

`CCCC[C@H](NC(=O)[C@@H](NC(=O)[C@H](CC(=O)O)NC(=O)[C@H](CCC(N)=O)NC(=O)[C@H](CC(C)C)NC(=O)[C@H](CC(C)C)NC(=O)[C@H](CCCN)NC(=O)[C@H](CCCNC(=N)N)NC(=O)[C@H](C)NC(=O)[C@H](CO)NC(=O)[C@H](CC(C)C)NC(=O)[C@H](CCC(N)=O)NC(=O)[C@H](CC)NC(=O)[C@H](CC(C)C)NC(=O)[C@@H](NC(=O)[C@H](CCCN)NC(=O)[C@H](CCCNC(=N)N)NC(=O)[C@H](Cc1ccc(O)cc1)NC(=O)[C@H](CO)NC(=O)[C@H](CCC(N)=O)NC(=O)[C@@H](NC(=O)[C@H](Cc1ccccc1)NC(=O)[C@@H](NC(=O)[C@H](C)NC(=O)[C@H](CC(=O)O)NC(=O)[C@@H](C)NC(=O)CCc1ccc(O)cc1)[C@@H](C)CC)[C@@H](C)O)C(C)C)[C@@H](C)CC)C(=O)N[C@@H](CC(=O)O)C(=O)NCCCCNC(=N)N` [Peptide P-20350, [Dat^1, D-Ala^2, Gln^8, Orn^12, Abu^15, Orn^21, Nle^27, Asp^28, Agm^29]hGHRH(1-29) NH2] (Desaminotyrosyl-[dA]DAIFTQSYR[Orn]VL[Abu]QLSAR[Orn]LLQDI[Nle]D-Agmatine) was tested, and the “Stimulation of growth hormone levels after subcutaneous administration (in words)” value (GH release; s.c.) was “stimulated greater growth hormone levels than hGHRH or JI-38”, the “GH releasing potency relative to JI-38 (=1)” value (GH release; 15 min after) was 1.53 and the “GH releasing potency relative to JI-38 (=1)” value (GH release; 30 min after) was 1.17. For the same molecule, the “CO (Cardiac Output)” value [1] was “↑”, the “EDP (End-Diastolic Pressure)” value [1] was “↑” and the EF [1] was “↑”. The “ESP (End-Systolic Pressure)” value [1] was “↑”, the “ESV (End-Systolic Volume)” value [1] was “=” and the “Ea (arterial Elastance)” value [1] was “=”. The Ea/Ees [1] was “=”, the “Ees (End-systolic Elastance)” value [1] was “=” and the “PRSW (Preload Recruitable Stroke Work)” value [1] was “=”. The “SV (Stroke Volume)” value [1] was “=”, the “SW (Stroke Work)” value [1] was “↓” and the “TAU (relaxation time constant calculated by Weiss method)” value [1] was “=”. The “dP/dt max (peak rate of the pressure rise)” value [1] was “=”, the “dP/dt max_EDV” value [1] was “=” and the dP/dt min [1] was “=”. For the same molecule, the IC50 (GHRH receptor [2]; 125I-JV-1-42, human pituitary membranes, Table 5) was 0.04 nM, the “Relative affinity (Binding potency) vs GHRH” value (GHRH receptor [2]; GHRH(1-29) = 1, Table 5) was 101.5 and the “Relative affinity (Binding potency) vs JI-38” value (GHRH receptor [2]; JI-38 = 1, Table 5) was 42.7. For the same molecule, the IC50 (GHRH receptor [3]; 125I-JV-1-42, human pituitary membranes, Table 7) was 0.52 nM, the “Relative affinity (Binding potency) vs JI-38” value (GHRH receptor [3]; JI-38 = 1, Table 7) was 8.37 and the “EF: Ejection Fraction” value [4] was “=”. For the same molecule, the “FS: Fraction Shortening” value [4] was “=”, the “LVEDD: Left Ventricular End Diastolic Diameter” value [4] was “↓” and the “LVESD: Left Ventricular End Systolic Diameter” value [4] was “=”. For the same molecule, the “VD: Ventricular Diastole” value [4] was “=” and the “VS: Ventricular Systole” value [4] was “=”.

Source: patent US10555987B2, “GHRH agonists for the treatment of ischemic disorders” (UNIVERSITY OF MIAMI, priority 2012, dated 2020)
